Test results as given in paper PMC5515969, “Effects of 31 FDA approved small-molecule kinase inhibitors on isolated rat liver mitochondria” (Archives of Toxicology, 2016).

System: not given
Test: not given
Set-up: method as in product labeling
Details: BBW: black box warning; W&P: Warnings and Precautions; ref product labeling; cited from earlier work

Structure (SMILES) | Labeling for cardiotoxicity
CNC(=O)c1ccccc1Sc1ccc2c(/C=C/c3ccccn3)n[nH]c2c1 [Axitinib] | W&P: Cardiac Failure
COc1cc2c(Nc3ccc(Br)cc3F)ncnc2cc1OCC1CCN(C)CC1 [Vandetanib] | BBW
CCCS(=O)(=O)Nc1ccc(F)c(C(=O)c2c[nH]c3ncc(-c4ccc(Cl)cc4)cc23)c1F [Vemurafenib] | W&P: QT Prolongation

Same assay, conditions: ref product labeling; cited from earlier work

Structure (SMILES) | Potential for cardiotoxicity (based on labeling)
CNC(=O)c1ccccc1Sc1ccc2c(/C=C/c3ccccn3)n[nH]c2c1 [Axitinib] | 1
COc1cc2c(Nc3ccc(Br)cc3F)ncnc2cc1OCC1CCN(C)CC1 [Vandetanib] | 1
CCCS(=O)(=O)Nc1ccc(F)c(C(=O)c2c[nH]c3ncc(-c4ccc(Cl)cc4)cc23)c1F [Vemurafenib] | 1

System: not given
Test: not given
Details: human therapeutic Cmax at FDA recommended dosages; ref product labeling and drug approval packages at the official FDA website; cited from earlier work

Structure (SMILES) | Cmax [µM]
CNC(=O)c1ccccc1Sc1ccc2c(/C=C/c3ccccn3)n[nH]c2c1 [Axitinib] | 0.07
COc1cc2c(Nc3ccc(Br)cc3F)ncnc2cc1OCC1CCN(C)CC1 [Vandetanib] | 1.8
CCCS(=O)(=O)Nc1ccc(F)c(C(=O)c2c[nH]c3ncc(-c4ccc(Cl)cc4)cc23)c1F [Vemurafenib] | 0.13

Same assay, conditions: read-out: Cmax at µM; therapeutic maximal blood concentration; ref product labeling; cited from earlier work

Structure (SMILES) | Cmax [µM]
COc1cc2c(Nc3ccc(Br)cc3F)ncnc2cc1OCC1CCN(C)CC1 [Vandetanib] | 1.8

Same assay, conditions: therapeutic maximal blood concentration; ref product labeling; cited from earlier work

Structure (SMILES) | Cmax [ng/mL]
CNC(=O)c1ccccc1Sc1ccc2c(/C=C/c3ccccn3)n[nH]c2c1 [Axitinib] | 27.8
COc1cc2c(Nc3ccc(Br)cc3F)ncnc2cc1OCC1CCN(C)CC1 [Vandetanib] | 857

System: RCC I
Test: RCC I activity in submitochondrial particles
Type: biochemical, rat
Set-up: key to RCC I at 10XCmax / RCC I at 100XCmax / RCC I at 50XCmax / RCC I at 30XCmax / RCC I at 20XCmax: activity relative to DMSO-treated controls (control set as 1 = 100%)
Details: 10XCmax; relative to DMSO treated samples
Summary of the method: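 Abs 340 nm (I/V) or 600 nm (II), 1-min reads × 6 min; 550 nm (III, IV), 10-s reads × 2 min. RCC I = rotenone-free minus rotenone rate. DMSO control = 1.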

Structure (SMILES) | RCC I at 10XCmax
CNC(=O)c1ccccc1Sc1ccc2c(/C=C/c3ccccn3)n[nH]c2c1 [Axitinib] | 0
COc1cc2c(Nc3ccc(Br)cc3F)ncnc2cc1OCC1CCN(C)CC1 [Vandetanib] | 0
CCCS(=O)(=O)Nc1ccc(F)c(C(=O)c2c[nH]c3ncc(-c4ccc(Cl)cc4)cc23)c1F [Vemurafenib] | 0

Same assay, conditions: 50-fold Cmax; 15 min; DMSO-treated = 100

Structure (SMILES) | RCC activity I
COc1cc2c(Nc3ccc(Br)cc3F)ncnc2cc1OCC1CCN(C)CC1 [Vandetanib] | 87.71 ± 0.58 % of control

Same assay, conditions: 50XCmax; relative to DMSO treated samples

Structure (SMILES) | RCC I at 50XCmax
COc1cc2c(Nc3ccc(Br)cc3F)ncnc2cc1OCC1CCN(C)CC1 [Vandetanib] | 87.71±0.58

Same assay, conditions: 100-fold Cmax; 15 min; DMSO-treated = 100

Structure (SMILES) | RCC activity I
COc1cc2c(Nc3ccc(Br)cc3F)ncnc2cc1OCC1CCN(C)CC1 [Vandetanib] | 65.88 ± 7.15 % of control

Same assay, conditions: 100XCmax; relative to DMSO treated samples

Structure (SMILES) | RCC I at 100XCmax
COc1cc2c(Nc3ccc(Br)cc3F)ncnc2cc1OCC1CCN(C)CC1 [Vandetanib] | 65.88±7.15

Same assay, conditions: submitochondrial particles

Structure (SMILES) | lowest concentration inhibiting RCC I [fold Cmax]
COc1cc2c(Nc3ccc(Br)cc3F)ncnc2cc1OCC1CCN(C)CC1 [Vandetanib] | 50

System: isolated rat liver mitochondria
Test: Mitochondrial swelling (absorbance at 535 nm); for Swelling 5XCmax: key: 0 indicates that the drug had no effects (negative)
Type: biochemical
Details: not given

Structure (SMILES) | lowest concentration causing mitochondrial swelling [fold Cmax]
COc1cc2c(Nc3ccc(Br)cc3F)ncnc2cc1OCC1CCN(C)CC1 [Vandetanib] | 100

Same assay, conditions: 1XCmax; difference in signal between KI and DMSO treated samples at the end of experiments

Structure (SMILES) | Swelling 1XCmax
CNC(=O)c1ccccc1Sc1ccc2c(/C=C/c3ccccn3)n[nH]c2c1 [Axitinib] | 0
COc1cc2c(Nc3ccc(Br)cc3F)ncnc2cc1OCC1CCN(C)CC1 [Vandetanib] | 0
CCCS(=O)(=O)Nc1ccc(F)c(C(=O)c2c[nH]c3ncc(-c4ccc(Cl)cc4)cc23)c1F [Vemurafenib] | 0

Same assay, conditions: 2.5XCmax; difference in signal between KI and DMSO treated samples at the end of experiments

Structure (SMILES) | Swelling 2.5XCmax
CNC(=O)c1ccccc1Sc1ccc2c(/C=C/c3ccccn3)n[nH]c2c1 [Axitinib] | 0
COc1cc2c(Nc3ccc(Br)cc3F)ncnc2cc1OCC1CCN(C)CC1 [Vandetanib] | 0
CCCS(=O)(=O)Nc1ccc(F)c(C(=O)c2c[nH]c3ncc(-c4ccc(Cl)cc4)cc23)c1F [Vemurafenib] | 0

Same assay, conditions: 5XCmax; difference in signal between KI and DMSO treated samples at the end of experiments

Structure (SMILES) | Swelling 5XCmax
CNC(=O)c1ccccc1Sc1ccc2c(/C=C/c3ccccn3)n[nH]c2c1 [Axitinib] | 0
COc1cc2c(Nc3ccc(Br)cc3F)ncnc2cc1OCC1CCN(C)CC1 [Vandetanib] | 0
CCCS(=O)(=O)Nc1ccc(F)c(C(=O)c2c[nH]c3ncc(-c4ccc(Cl)cc4)cc23)c1F [Vemurafenib] | 0

Same assay, conditions: 10XCmax; difference in signal between KI and DMSO treated samples at the end of experiments

Structure (SMILES) | Swelling 10XCmax
CNC(=O)c1ccccc1Sc1ccc2c(/C=C/c3ccccn3)n[nH]c2c1 [Axitinib] | 0
COc1cc2c(Nc3ccc(Br)cc3F)ncnc2cc1OCC1CCN(C)CC1 [Vandetanib] | 0
CCCS(=O)(=O)Nc1ccc(F)c(C(=O)c2c[nH]c3ncc(-c4ccc(Cl)cc4)cc23)c1F [Vemurafenib] | 0

Same assay, conditions: 20XCmax; difference in signal between KI and DMSO treated samples at the end of experiments

Structure (SMILES) | Swelling 20XCmax
CNC(=O)c1ccccc1Sc1ccc2c(/C=C/c3ccccn3)n[nH]c2c1 [Axitinib] | 0
COc1cc2c(Nc3ccc(Br)cc3F)ncnc2cc1OCC1CCN(C)CC1 [Vandetanib] | 0
CCCS(=O)(=O)Nc1ccc(F)c(C(=O)c2c[nH]c3ncc(-c4ccc(Cl)cc4)cc23)c1F [Vemurafenib] | 0

Same assay, conditions: 30XCmax; difference in signal between KI and DMSO treated samples at the end of experiments

Structure (SMILES) | Swelling 30XCmax
CNC(=O)c1ccccc1Sc1ccc2c(/C=C/c3ccccn3)n[nH]c2c1 [Axitinib] | 0
COc1cc2c(Nc3ccc(Br)cc3F)ncnc2cc1OCC1CCN(C)CC1 [Vandetanib] | 0
CCCS(=O)(=O)Nc1ccc(F)c(C(=O)c2c[nH]c3ncc(-c4ccc(Cl)cc4)cc23)c1F [Vemurafenib] | 0

Same assay, conditions: 50XCmax; difference in signal between KI and DMSO treated samples at the end of experiments

Structure (SMILES) | Swelling 50XCmax
CNC(=O)c1ccccc1Sc1ccc2c(/C=C/c3ccccn3)n[nH]c2c1 [Axitinib] | 0
COc1cc2c(Nc3ccc(Br)cc3F)ncnc2cc1OCC1CCN(C)CC1 [Vandetanib] | 0
CCCS(=O)(=O)Nc1ccc(F)c(C(=O)c2c[nH]c3ncc(-c4ccc(Cl)cc4)cc23)c1F [Vemurafenib] | 0

Same assay, conditions: 100XCmax; difference in signal between KI and DMSO treated samples at the end of experiments

Structure (SMILES) | Swelling 100XCmax
CNC(=O)c1ccccc1Sc1ccc2c(/C=C/c3ccccn3)n[nH]c2c1 [Axitinib] | 0
COc1cc2c(Nc3ccc(Br)cc3F)ncnc2cc1OCC1CCN(C)CC1 [Vandetanib] | 0.22±0.06
CCCS(=O)(=O)Nc1ccc(F)c(C(=O)c2c[nH]c3ncc(-c4ccc(Cl)cc4)cc23)c1F [Vemurafenib] | 0

Same assay, conditions: up to 100-fold Cmax or highest testable concentration; 25 µM calcium chloride

Structure (SMILES) | effect on mitochondrial swelling
COc1cc2c(Nc3ccc(Br)cc3F)ncnc2cc1OCC1CCN(C)CC1 [Vandetanib] | significant mitochondrial swelling
